Results published in patent US20220088024A1, “METHODS FOR TREATING CANCER USING TOZADENANT” (Biotie Therapies, Inc., priority 2018, published 2022).
Values joined by “and” are separate entries in the source; they are usually repeats but may differ in a detail not shown here. Equal values may be shown once.

How the values were obtained:
[1] = tested on: AT-3ova CD73+ tumour (mouse breast carcinoma cell line AT-3); experiment: Example 3: anti-tumor responses of SYN-115 QD or BID in the AT-3ova CD73+ tumour cell mouse model (tumor area); format: in vivo, C57/BL6 mice; parameters: key to Raw Tumor Measurements: tumor area, width × length in mm^2
Description: The C57BL/6 mouse breast carcinoma cell line AT-3 was obtained from Dr. Trina Stewart (Griffith University, Nathan, QLD, Australia. Tumor cell lines were transduced to express chicken ovalbumin peptide and CD73 as previously described (1, 2, 3). Tumor cells are periodically verified to be Mycoplasma negative by the Victorian Infectious Diseases References Lab (Melbourne, VIC, Australia) by PCR analysis. Tumor cells were grown in DMEM supplemented with 10% FCS, GlutaMAX, and penicillin/streptomycin. 5×10^5 cells were resuspended in PBS and injected s.c. into C57/BL6 mice in a 100 μL volume. At day 14 tumors were measured and mice were randomized into distinct treatment groups to ensure that each group had tumors of similar size at the onset of treatment. Mice were treated i.p. at days 14, 18, 22, and 26 with either isotype control (2A3; 200 μg/mouse) or anti-PD-1 mAb (RMP1-14, 200 μg/mouse) and where indicated SYN-115 (Batch 71236AA002) at the indicated dose or vehicle control once or twice-daily via oral gavage on days 14 to 29. To calculate a dose of SYN-115 mouse weight was estimated to be 20 g per mouse. Therefore, 100 mg/kg=2 mg per mouse in […] which is equivalent to 10 mg/ml. To make up 40 mL, 400 milligrams of SYN-115 was weighed and added into a Falcon tube, then 1 mL of Tween 80 was added and mixed into a paste and then 39 mL of 1% Methyl Cellulose was added. The solution was vortexed and then left on a rotating mixer for at least 2 hours and maintained at 4° C. Tumor measurements were taken 2-3 times per week. Tumor sizes were determined by width * length and mice were culled when tumors reached the ethical limit of 150 mm^2.

[2] = Example 12: pharmacokinetics of tozadenant tablets (180 mg single dose, bioequivalence study) in humans; format: in vivo; conditions: both sexes, plasma, oral, 180 mg (approximately 2.6 mg/kg in 70 kg human)
Description: In a clinical study, tozadenant was administered PO as tablets under fasted conditions, as a single administration at 180 mg. This was an open-label, single-center, randomized, 2-treatment, 2-way crossover bioequivalence study testing 2 different tablet formulation of tozadenant. A modified formulation of tozadenant has been developed for use in Phase 3 studies. The modified formulation for use in Phase 3 studies contains four fewer excipients compared to the Phase 2 formulation. This study, therefore, evaluated the bioequivalence of the Phase 3 formulation and the Phase 2 formulation.
Thirty-six (36) healthy adult, non-tobacco using male and female subjects were enrolled to ensure completion by 32 subjects. […]
The following PK parameters were calculated from the individual plasma tozadenant concentration-time data. All PK parameters were calculated using Phoenix WinNonlin® Version 6.3. […] For the calculation of the PK parameters, concentration values below the limit of quantitation (BLQ) were treated as zero before the first quantifiable concentration and as missing thereafter. […]
AUC and Cmax parameters were not to be calculated for subjects with only 2 or less consecutive time points with detectable concentrations. […]
Tozadenant was quantitated using a validated liquid chromatography/tandem mass spectrometry method with a lower limit of quantitation (LLOQ) of 0.00500 μg/mL.

[3] = tested on: B16F10 CD73 melanoma metastases; experiment: Example 8: number of lung tumor metastases in the B16F10 CD73 tumor mouse model; format: in vivo, C57/BL6 mice (A2A-/- or Wild-Type); conditions: 100 mg/kg once-daily oral gavage days 0 to 13, counted day 14, Batch 71236AA002
Description: The C57/BL6 mouse melanoma cell line B16F10 CD73 was cultured in DMEM supplemented with 10% FCS, GlutaMAX, and penicillin/streptomycin. Tumor cells are periodically verified to be Mycoplasma negative by the Victorian Infectious Diseases References
Lab (Melbourne, VIC, Australia) by PCR analysis. 2×10^5 cells were resuspended in PBS and injected i.v. into C57/BL6 mice (A2A^−/− or Wild-Type) in a 200 μL volume. At day 14, lungs were excised and the number of metastases counted under the dissecting microscope. Mice were dosed with either SYN-115 (Batch 71236AA002) at 100 mg/kg or vehicle control once-daily via oral gavage on days 0 to 13. To calculate a dose of SYN-115, mouse weight was estimated to be 20 g per mouse. Therefore, 100 mg/kg=2 mg per mouse in 200 μL, which is equivalent to 10 mg/ml. To make up 40 mL 400 milligrams of SYN-115 was weighed and added into a Falcon tube, then 1 mL of Tween 80 added and mixed into a paste and then 39 mL of 1% Methyl Cellulose was added. Solution was vortexed and then left on rotating mixer for at least 2 hours and maintained at 4° C.

For COc1ccc(N2CCOCC2)c2sc(NC(=O)N3CCC(C)(O)CC3)nc12 [SYN-115, 4-hydroxy-4-methyl-piperidine-1-carboxylic acid (4-methoxy-7-morpholin-4-yl-benzothiazol-2-yl)-amide], the “Tumor size (width * length)” value ([1]; 2A3 (200 ug/mouse)+SYN-115 (100 mg/kg) QD, Day 0) was 19.38 mm^2 and 14.96 mm^2 and 20 mm^2 and 24.38 mm^2 and 13.26 mm^2 and 18.9 mm^2, the “Tumor size (width * length)” value ([1]; 2A3 (200 ug/mouse)+SYN-115 (100 mg/kg) QD, Day 31) was 73.1 mm^2 and the “Tumor size (width * length)” value ([1]; 2A3 (200 ug/mouse)+SYN-115 (100 mg/kg) QD, Day 34) was 74.82 mm^2. For the same compound, the “Tumor size (width * length)” value ([1]; 2A3 (200 ug/mouse)+SYN-115 (100 mg/kg) QD, Day 39) was 86.45 mm^2, the “Tumor size (width * length)” value ([1]; 2A3 (200 ug/mouse)+SYN-115 (100 mg/kg) QD, Day 42) was 129.87 mm^2 and the “Raw Tumor Measurements” value ([1]; Anti-PD-1 (200 ug)+SYN-115 (30 mg/kg) BID, Day 0) was 12.6 and 15.54 and 22 and 16.38 and 22.68 and 18.36. For the same compound, the “Raw Tumor Measurements” value ([1]; Anti-PD-1 (200 ug)+SYN-115 (30 mg/kg) BID, Day 17) was 44.08 and 44.22 and 73.92 and 38.86 and 63.24 and 66.64, the “Raw Tumor Measurements” value ([1]; Anti-PD-1 (200 ug)+SYN-115 (30 mg/kg) BID, Day 31) was 111.28 and 64.74 and the “Raw Tumor Measurements” value ([1]; Anti-PD-1 (200 ug)+SYN-115 (30 mg/kg) BID, Day 34) was 73.1. The “Raw Tumor Measurements” value ([1]; Anti-PD-1 (200 ug)+SYN-115 (30 mg/kg) BID, Day 39) was 69.6, the “Raw Tumor Measurements” value ([1]; Anti-PD-1 (200 ug)+SYN-115 (30 mg/kg) BID, Day 42) was 99.51 and the “Raw Tumor Measurements” value ([1]; Anti-PD-1 (200 ug)+SYN-115 (30 mg/kg) BID, Day 44) was 114.33. The “Tumor size (width * length)” value ([1]; Anti-PD-1 (200 ug)+SYN-115 (30 mg/kg) QD, Day 28) was 58.5 mm^2 and 63.99 mm^2 and 113.1 mm^2, the “Tumor size (width * length)” value ([1]; Anti-PD-1 (200 ug)+SYN-115 (30 mg/kg) QD, Day 31) was 57.76 mm^2 and 74.82 mm^2 and the “Tumor size (width * length)” value ([1]; Anti-PD-1 (200 ug)+SYN-115 (30 mg/kg) QD, Day 34) was 72.8 mm^2 and 93.06 mm^2. The “Tumor size (width * length)” value ([1]; Anti-PD-1 (200 ug)+SYN-115 (30 mg/kg) QD, Day 39) was 83.42 mm^2 and 127 mm^2, the “Tumor size (width * length)” value ([1]; Anti-PD-1 (200 ug)+SYN-115 (30 mg/kg) QD, Day 42) was 127.53 mm^2 and the “Raw Tumor Measurements” value ([1]; Anti-PD-1 (200 ug)+SYN-115 (100 mg/kg) BID, Day 0) was 16.28 and 15.96 and 20.46 and 16.8 and 24.12 and 12.24. For the same compound, the “Raw Tumor Measurements” value ([1]; Anti-PD-1 (200 ug)+SYN-115 (100 mg/kg) BID, Day 22) was 49.92 and 83.7 and 67.45 and 51.48 and 75.64 and 82.39, the “Raw Tumor Measurements” value ([1]; Anti-PD-1 (200 ug)+SYN-115 (100 mg/kg) BID, Day 28) was 66.96 and 98.79 and 88.4 and 132.3 and 118.34 and the “Raw Tumor Measurements” value ([1]; Anti-PD-1 (200 ug)+SYN-115 (100 mg/kg) BID, Day 31) was 79.38 and 102.08 and 109.44. For the same compound, the “Raw Tumor Measurements” value ([1]; Anti-PD-1 (200 ug)+SYN-115 (100 mg/kg) BID, Day 34) was 99.36, the “Raw Tumor Measurements” value ([1]; Anti-PD-1 (200 ug)+SYN-115 (100 mg/kg) BID, Day 39) was 103.55 and the “Raw Tumor Measurements” value ([1]; Anti-PD-1 (200 ug)+SYN-115 (100 mg/kg) QD, Day 0) was 14.82 and 14.76 and 15.17 and 15.12 and 23.78. The “Raw Tumor Measurements” value ([1]; Anti-PD-1 (200 ug)+SYN-115 (100 mg/kg) QD, Day 9) was 29.07 and 25 and 29.68 and 26 and 34.78 and 29.25, the “Raw Tumor Measurements” value ([1]; Anti-PD-1 (200 ug)+SYN-115 (100 mg/kg) QD, Day 13) was 32.45 and 39.33 and 38.19 and 25.48 and 40.7 and 33.5 and the “Raw Tumor Measurements” value ([1]; Anti-PD-1 (200 ug)+SYN-115 (100 mg/kg) QD, Day 15) was 39.33 and 42 and 44.2 and 32.86 and 50.74 and 25.85. For the same compound, the “Raw Tumor Measurements” value ([1]; Anti-PD-1 (200 ug)+SYN-115 (100 mg/kg) QD, Day 17) was 39.53 and 44.4 and 48 and 31.35 and 52.92 and 44.73, the “Raw Tumor Measurements” value ([1]; Anti-PD-1 (200 ug)+SYN-115 (100 mg/kg) QD, Day 20) was 48.28 and 61.56 and 66.6 and 48.99 and 61.2 and 51.2 and the “Raw Tumor Measurements” value ([1]; Anti-PD-1 (200 ug)+SYN-115 (100 mg/kg) QD, Day 24) was 51.83 and 72.98 and 86.92 and 53.96 and 85.05 and 46.8. For the same compound, the “Raw Tumor Measurements” value ([1]; Anti-PD-1 (200 ug)+SYN-115 (100 mg/kg) QD, Day 28) was 55.2 and 90.09 and 97.9 and 77.44 and 95.04 and 77.19, the “Raw Tumor Measurements” value ([1]; Anti-PD-1 (200 ug)+SYN-115 (100 mg/kg) QD, Day 31) was 74.82 and 128.76 and 81.7 and 101.37 and 79.9 and the “Raw Tumor Measurements” value ([1]; Anti-PD-1 (200 ug)+SYN-115 (100 mg/kg) QD, Day 34) was 79.05 and 95.06 and 81.32. The “Raw Tumor Measurements” value ([1]; Anti-PD-1 (200 ug)+SYN-115 (100 mg/kg) QD, Day 39) was 81.9 and 104.86 and 82.95, the “Raw Tumor Measurements” value ([1]; Anti-PD-1 (200 ug)+SYN-115 (100 mg/kg) QD, Day 42) was 127.33 and 132.24 and the AUC [2] was 20600 ng·h/mL. For the same compound, the “Number of Tumor Metastases (lung), individual mice” value [3] was 21 and 1 (2×) and 5 and 11 and 13 and 28 and 2 and 8.
